Measured values: ChEMBL document CHEMBL6078673, “Synthesis and anti-tumor activity of menthylamine derivatives: Focusing on the potent inhibitory effect of compound W8 on glioma growth” (Bioorg Med Chem, 2025)
≈ marks a conversion by molar mass, not a printed value. Calls of active or inactive are those of the source. The rule behind the calls is not given here.

Experiments:
HUVEC = assay: Antiangiogenesis activity in human HUVEC cells assessed as inhibition of vascular structure formation at 80 uM incubated for 12 hrs by inverted fluorescence microscopic analysis; format: functional, cell-based
U-87 MG [1] = assay: Induction of cell cycle arrest in human U87 cells assessed as decrease in number of cells at G2 phase at 80 uM incubated for 24 hrs by RNase/PI staining based flow cytometry; format: functional; details: U-87MG ATCC
U-87 MG [2] = assay: Inhibition of cell invasion in human U87 cells incubated for 48 hrs by crystal violet staining based microscopic analysis; format: functional; details: U-87MG ATCC
[3] = Toxicity in Balb/c mouse xenografted with human U87 cells assessed as histological change in kidney at 10 mg/kg,ip administered every 3 days measured after 27 days by hematoxylin and eosin staining based assay; format: organism-based; details: in vivo, 648 h, time 27 day
[4] = Toxicity in Balb/c mouse xenografted with human U87 cells assessed as histological change in liver at 10 mg/kg,ip administered every 3 days measured after 27 days by TUNEL staining based assay; format: organism-based; details: in vivo, 648 h, time 27 day
[5] = Toxicity in Balb/c mouse xenografted with human U87 cells assessed as body weight loss at 10 mg/kg,ip administered every 3 days measured after 27 days; format: organism-based; details: in vivo, 648 h, time 27 day
[6] = Toxicity in Balb/c mouse xenografted with human U87 cells assessed as histological change in kidney at 10 mg/kg,ip administered every 3 days measured after 27 days by TUNEL staining based assay; format: organism-based; details: in vivo, 648 h, time 27 day
[7] = Metabolic stability in liver microsomes (unknown origin) assessed as half life incubated for 60 mins by LC-MS/MS analysis; format: ADME, Microsome
[8] = Toxicity in Balb/c mouse xenografted with human U87 cells assessed as histological change in brain at 10 mg/kg,ip administered every 3 days measured after 27 days by hematoxylin and eosin staining based assay; format: organism-based; details: in vivo, 648 h, time 27 day
U-87 MG [9] = assay: Antitumor activity in human U87 cells assessed as downregulation of ANGP-2 expression at 80 uM incubated for 24 hrs by Western blotting analysis; format: functional, cell-based; details: U-87MG ATCC
U-87 MG [10] = assay: Induction of apoptosis in human U87 cells assessed as increase in number of early apoptotic cells at 80 uM incubated for 24 hrs by Annexin V-FITC/PI staining based flow cytometry; format: functional, cell-based; details: U-87MG ATCC
U-87 MG [11] = assay: Induction of apoptosis in human U87 cells assessed as increase in number of necrotic cells at 80 uM incubated for 24 hrs by Annexin V-FITC/PI staining based flow cytometry; format: functional, cell-based; details: U-87MG ATCC
U-87 MG [12] = assay: Antitumor activity in human U87 cells assessed as downregulation of […] expression at 80 uM incubated for 24 hrs by Western blotting analysis; format: functional, cell-based; details: U-87MG ATCC
U-87 MG [13] = assay: Antiangiogenesis activity in human U87 cells assessed as inhibition of neovascularization at 80 uM incubated for 12 hrs by inverted fluorescence microscopic analysis; format: functional, cell-based; details: U-87MG ATCC
[14] = Efflux ratio of apparent permeability from basolateral to apical side over apical to basolateral side in human Caco-2 cells at 2 uM incubated for 2 hr by LC-MS/MS analysis; format: ADME, cell-based; details: Caco-2
[15] = Toxicity in Balb/c mouse xenografted with human U87 cells assessed as histological change in lung at 10 mg/kg,ip administered every 3 days measured after 27 days by hematoxylin and eosin staining based assay; format: organism-based; details: in vivo, 648 h, time 27 day
[16] = Toxicity in Balb/c mouse xenografted with human U87 cells assessed as histological change in spleen at 10 mg/kg,ip administered every 3 days measured after 27 days by hematoxylin and eosin staining based assay; format: organism-based; details: in vivo, 648 h, time 27 day
U-87 MG [17] = assay: Antiproliferative activity against human U87 cells assessed as inhibition of cell growth incubated for 24 hrs by CCK-8 assay; format: functional, cell-based, U-87MG ATCC
[18] = Toxicity in Balb/c mouse xenografted with human U87 cells assessed as histological change in spleen at 10 mg/kg,ip administered every 3 days measured after 27 days by TUNEL staining based assay; format: organism-based; details: in vivo, 648 h, time 27 day
[19] = Toxicity in Balb/c mouse xenografted with human U87 cells assessed as histological change in lung at 10 mg/kg,ip administered every 3 days measured after 27 days by TUNEL staining based assay; format: organism-based; details: in vivo, 648 h, time 27 day
[20] = Toxicity in Balb/c mouse xenografted with human U87 cells assessed as histological change in heart at 10 mg/kg,ip administered every 3 days measured after 27 days by hematoxylin and eosin staining based assay; format: organism-based; details: in vivo, 648 h, time 27 day
KYSE-150 cell line = assay: Antiproliferative activity against human KYSE-150 cell line assessed as inhibition of cell growth incubated for 24 hrs by CCK-8 assay; format: functional, cell-based; details: KYSE-150, 24 h
U-87 MG [21] = assay: Antitumor activity in human U87 cells assessed as upregulation of cleaved caspase-3 expression at 80 uM incubated for 24 hrs by Western blotting analysis; format: functional, cell-based; details: U-87MG ATCC
[22] = Toxicity in Balb/c mouse xenografted with human U87 cells assessed as histological change in liver at 10 mg/kg,ip administered every 3 days measured after 27 days by hematoxylin and eosin staining based assay; format: organism-based; details: in vivo, 648 h, time 27 day
U-87 MG [23] = assay: Induction of cell cycle arrest in human U87 cells assessed as decrease in number of cells at G1 phase at 80 uM incubated for 24 hrs by RNase/PI staining based flow cytometry; format: functional; details: U-87MG ATCC
[24] = Apparent permeability across apical to basolateral side in human Caco-2 cells at 2 uM incubated for 2 hrs by LC-MS/MS analysis; format: ADME, cell-based; details: Caco-2
U-87 MG [25] = assay: Induction of apoptosis in human U87 cells assessed as increase in number of late apoptotic cells at 80 uM incubated for 24 hrs by Annexin V-FITC/PI staining based flow cytometry; format: functional, cell-based; details: U-87MG ATCC
[26] = Metabolic stability in liver microsomes (unknown origin) assessed as compound remaining incubated for 60 mins by LC-MS/MS analysis; format: ADME, Microsome; details: read-out: Stability
[27] = Toxicity in Balb/c mouse xenografted with human U87 cells assessed as histological change in heart at 10 mg/kg,ip administered every 3 days measured after 27 days by TUNEL staining based assay; format: organism-based; details: in vivo, 648 h, time 27 day
U-87 MG [28] = assay: Induction of cell cycle arrest in human U87 cells assessed as increase in number of cells at S phase at 80 uM incubated for 24 hrs by RNase/PI staining based flow cytometry; format: functional; details: U-87MG ATCC
HCT-116 = assay: Antiproliferative activity against human HCT-116 cells assessed as inhibition of cell growth incubated for 24 hrs by CCK-8 assay; format: functional, cell-based; details: HCT-116, 24 h
[29] = Kinetic solubility in PBS at pH 7.4 incubated under shaking condition for 24 hrs by LC-MS/MS analysis; format: physicochemical; details: read-out: Kinetic_solubility
MCF7 = assay: Antiproliferative activity against human MCF7 cells assessed as inhibition of cell growth incubated for 24 hrs by CCK-8 assay; format: functional, cell-based; details: MCF7, 24 h
U-87 MG [30] = assay: Antitumor activity against human U87 cells xenografted in Balb/c mouse assessed as reduction in tumor size at 10 mg/kg,ip administered every 3 days measured after 27 days; format: functional, organism-based; details: U-87MG ATCC, time 27.0 day
U-87 MG [31] = assay: Induction of apoptosis in human U87 cells assessed as increase in number of apoptotic cells at 80 uM incubated for 24 hrs by Annexin V-FITC/PI staining based flow cytometry; format: functional, cell-based; details: U-87MG ATCC
U-87 MG [32] = assay: Antitumor activity in human U87 cells assessed as downregulation of CD133 expression at 80 uM incubated for 24 hrs by Western blotting analysis; format: functional, cell-based; details: U-87MG ATCC
U-87 MG [33] = assay: Antitumor activity in human U87 cells assessed as downregulation of VEGFR2 expression at 80 uM incubated for 24 hrs by Western blotting analysis; format: functional, cell-based; details: U-87MG ATCC
[34] = Apparent permeability across basolateral to apical side in human Caco-2 cells at 2 uM incubated for 2 hrs by LC-MS/MS analysis; format: ADME, cell-based; details: Caco-2
U-87 MG [35] = assay: Inhibition of cell migration in human U87 cells at 80 uM incubated for 48 hrs by scratch assay; format: functional, cell-based; details: U-87MG ATCC
U-87 MG [36] = assay: Induction of apoptosis in human U87 cells at 80 uM incubated for 24 hrs by Annexin V-FITC/PI staining based flow cytometry; format: functional, U-87MG ATCC
[37] = Toxicity in Balb/c mouse xenografted with human U87 cells assessed as histological change in brain at 10 mg/kg,ip administered every 3 days measured after 27 days by TUNEL staining based assay; format: organism-based; details: in vivo, 648 h, time 27 day

SMILES: CC(C)[C@H]1CC[C@@H](C)C[C@@H]1N1C(=O)c2ccccc2C1=O
- Activity (HUVEC): Active
- Activity (U-87 MG [1]): inactive
- inhibition (U-87 MG [2]): Active
- Activity [3]: Non-toxic
- Activity [4]: Non-toxic
- Activity [5]: Non-toxic
- Activity [6]: Non-toxic
- half-life [7]: > 2.42 h
- Activity [8]: Non-toxic
- Activity (U-87 MG [9]): Active
- Activity (U-87 MG [10]): Active
- Activity (U-87 MG [11]): Active
- Activity (U-87 MG [12]): Active
- Activity (U-87 MG [13]): Active
- efflux ratio at 2 h, 2 µM [14]: 0.52
- Activity [15]: Non-toxic
- Activity [16]: Non-toxic
- IC50 (U-87 MG [17]): 65.3 µM
- Activity [18]: Non-toxic
- Activity [19]: Non-toxic
- Activity [20]: Non-toxic
- IC50 (KYSE-150 cell line): 972 µM
- Activity (U-87 MG [21]): Active
- Activity [22]: Non-toxic
- Activity (U-87 MG [23]): inactive
- Papp A→B at 2 h, 2 µM [24]: 25.7 ×10⁻⁶ cm/s
- Activity (U-87 MG [25]): Active
- remaining at 1 h [26]: 82.8%
- Activity [27]: Non-toxic
- Activity (U-87 MG [28]): inactive
- IC50 (HCT-116): 57.2 µM
- solubility kinetic at 24 h [29]: 0.03 µM (≈ 8.56 ng/mL)
- IC50 (MCF7): 1490 µM
- Activity (U-87 MG [30]): Active
- Activity (U-87 MG [31]): Active; Significantly Increased Activity Observed
- Activity (U-87 MG [32]): Active
- Activity (U-87 MG [33]): Active
- Papp B→A at 2 h, 2 µM [34]: 13.3 ×10⁻⁶ cm/s
- inhibition (U-87 MG [35]): Active
- Activity (U-87 MG [36]): 90%
- Activity [37]: Non-toxic
